In assay [1] the test system is Ba/F3 LMNA-NTRK1-G595R cells. As to the kind of experiment: Assay for inhibiting the proliferation of Ba/F3 LMNA-NTRK1-G595R cells (CCK-8). The class given is cell-based. As to conditions: Mus musculus, BaF3. The method, then: In particular, the method of the assay of small molecular compounds for inhibiting cell proliferation is as follows: • 1. Cells cultured to a logarithmic growth phase (adherent cells need to be digested with trypsin and neutralized) were taken, pipetted evenly, transferred to a 15 mL centrifuge tube, and centrifuged at 1000 rpm at room temperature for 4 minutes; • 2. The supernatant was discarded; 5 mL of complete medium was added and pipetted evenly; 10 μL of cell suspension was taken out, mixed well with 10 μL of 0.4% trypan blue, and counted under a cell counter; the proportion of living cells was ensured to be above 90%; • 3. 80 μL of cell suspension per well was seeded into a 96-well plate according to the conditions shown in the attached table, and cultured overnight; in the outer 36 wells of the 96-well plate, no cells were added but only sterile water was added; only the inner 60 wells were used for cell assay and control; • 4. 5×compound dilution: the compounds were serially diluted 3-fold to obtain a total of 9 concentrations; 80-fold overall dilution was completed with complete medium, the resulting concentration was 5 times the final drug concentration, and DMSO concentration was 1.25%; • 5. 20 μL of the corresponding compounds with different concentration gradients were added to each well of assay wells of the 96-well plate; 20 μL of complete medium was added to positive and negative control wells and shaken well; and the final concentration of DMSO in each well was 0.25%; • 6. After 72 hours of incubation, 10 μL of CCK-8 reagent was added to each well and further incubated at 37° C. for 1-2 hours; and the OD value was read at 450 nm; • 7. Cell survival rate (%)=[(As−Ab)/(Ac−Ab)]*100% • As: Assay well (medium containing cells, CCK-8, compound), • Ac: Control well (medium containing cells, CCK-8), • Ab: Blank well (CCK-8, medium without cell and compound), • 8. The values were imported into Graphpad Prism 5 software for IC50 calculation.

Another assay deals with EBC1 cells. As to the kind of experiment: Assay for inhibiting the proliferation of EBC1 cells (CCK-8). The class given is cell-based. The conditions noted are these: Homo sapiens, EBC-1. In a few lines:
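Cells seeded in 96-well plates overnight, then exposed 72 h to 9 three-fold dilutions of compound (0.25% DMSO final). Viability by CCK-8 (1-2 h at 37° C., OD 450 nm), survival normalized to untreated and cell-free blanks; IC50 by curve fitting.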

As for `CCn1cc(C(=O)Nc2ccc(Oc3ccnc4cc(OCCCN5CCCCC5)c5c(c34)OCCO5)c(F)c2)c(=O)n(-c2ccc(F)cc2)c1=O` [Example 41, N-(3-fluoro-4-((5-(3-(piperidin-1-yl)propoxy)-2,3-dihydro-[1,4]dioxino[2,3-f]quinolin-10-yl)oxy)phenyl)-3-(4-fluorophenyl)-1-ethyl-2,4-dioxo-1,2,3,4-tetrahydropyrimidine-5-carboxamide], the IC50 in assay [1] was 50 to 200 nM; in the assay with EBC1 cells it was ≤ 50 nM.
As for `Cn1cc(C(=O)Nc2ccc(Oc3ccnc4cc(OCCCN5CCCCC5)c5c(c34)OCCO5)c(F)c2)c(=O)n(-c2ccc(F)cc2)c1=O` [Example 39, N-(3-fluoro-4-((5-(3-(piperidin-1-yl)propoxy)-2,3-dihydro-[1,4]dioxino[2,3-f]quinolin-10-yl)oxy)phenyl)-3-(4-fluorophenyl)-1-methyl-2,4-dioxo-1,2,3,4-tetrahydropyrimidine-5-carboxamide], the values for the IC50 (in assay [1]; in the assay with EBC1 cells) were 50 to 200 nM and ≤ 50 nM, respectively.
Turning to `COCCOc1cc2nccc(Oc3ccc(NC(=O)c4cn(C)c(=O)n(-c5ccc(F)cc5)c4=O)cc3F)c2c2c1OCCO2` [Example 42, N-(3-fluoro-4-((5-(2-methoxyethoxy)-2,3-dihydro-[1,4]dioxino[2,3-f]quinolin-10-yl)oxy)phenyl)-3-(4-fluorophenyl)-1-methyl-2,4-dioxo-1,2,3,4-tetrahydropyrimidine-5-carboxamide], the concentration for half-maximal inhibition (IC50) in assay [1] is 50 to 200 nM; with EBC1 cells it was ≤ 50 nM.
For `Cn1cc(C(=O)Nc2ccc(Oc3ccnc4cc(OCC(C)(C)O)c5c(c34)OCCO5)cc2)c(=O)n(-c2ccc(F)cc2)c1=O` [Example 149, N-(4-((5-(2-hydroxy-2-methylpropoxy)-2,3-dihydro-[1,4]dioxino[2,3-f]quinolin-10-yl)oxy)phenyl)-3-(4-fluorophenyl)-1-methyl-2,4-dioxo-1,2,3,4-tetrahydropyrimidine-5-carboxamide], in assay [1], the IC50 was > 1000 nM.
Same read-out and setting: the figure for `CC(C)n1cc(C(=O)Nc2ccc(Oc3ccnc4cc(OCC(C)(C)O)c5c(c34)OCCO5)c(F)c2)c(=O)n(-c2ccc(F)cc2)c1=O` [Example 122, N-(3-fluoro-4-((5-(2-hydroxy-2-methylpropoxy)-2,3-dihydro-[1,4]dioxino[2,3-f]quinolin-10-yl)oxy)phenyl)-3-(4-fluorophenyl)-1-isopropyl-2,4-dioxo-1,2,3,4-tetrahydropyrimidine-5-carboxamide] is 200 to 1000 nM; for `CCn1cc(C(=O)Nc2ccc(Oc3ccnc4cc(OCCOC)c5c(c34)OCCO5)cc2F)c(=O)n(-c2ccc(F)cc2)c1=O` [Example 156, N-(2-fluoro-4-((5-(2-methoxyethoxy)-2,3-dihydro-[1,4]dioxino[2,3-f]quinolin-10-yl)oxy)phenyl)-3-(4-fluorophenyl)-1-ethyl-2,4-dioxo-1,2,3,4-tetrahydropyrimidine-5-carboxamide] it is 50 to 200 nM; for `CCn1cc(C(=O)Nc2ccc(Oc3ccnc4cc(OCC(C)(C)O)c5c(c34)OCCO5)cc2)c(=O)n(-c2ccc(F)cc2)c1=O` [Example 150, N-(4-((5-(2-hydroxy-2-methylpropoxy)-2,3-dihydro-[1,4]dioxino[2,3-f]quinolin-10-yl)oxy)phenyl)-3-(4-fluorophenyl)-1-ethyl-2,4-dioxo-1,2,3,4-tetrahydropyrimidine-5-carboxamide] it is > 1000 nM.
Same read-out and setting: in the case of `Cn1cc(C(=O)Nc2ccc(Oc3ncnc4cc(OCCCN5CCOCC5)c5c(c34)OCCO5)c(F)c2)c(=O)n(-c2ccc(F)cc2)c1=O` [Example 30, N-(3-fluoro-4-((5-(3-morpholinopropoxy)-2,3-dihydro-[1,4]dioxino[2,3-f]quinazolin-10-yl)oxy)phenyl)-3-(4-fluorophenyl)-1-methyl-2,4-dioxo-1,2,3,4-tetrahydropyrimidine-5-carboxamide] it was 200 to 1000 nM.
As for `Cn1cc(C(=O)Nc2ccc(Oc3ccnc4cc(OCCCN5CCOCC5)c5c(c34)OCCO5)c(F)c2)c(=O)n(-c2ccc(F)cc2)c1=O` [Example 15, N-(3-fluoro-4-((5-(3-morpholinopropoxy)-2,3-dihydro-[1,4]dioxino[2,3-f]quinolin-10-yl)oxy)phenyl)-3-(4-fluorophenyl)-1-methyl-2,4-dioxo-1,2,3,4-tetrahydropyrimidine-5-carboxamide], the IC50 in assay [1] is 50 to 200 nM; in the assay on EBC1 cells, ≤ 50 nM.
Consider `COc1cc2nccc(Oc3cc(Cl)c(NC(=O)c4cn(C)c(=O)n(-c5ccc(F)cc5)c4=O)cc3F)c2c2c1OCCO2` [Example 116, N-(2-chloro-5-fluoro-4-((5-methoxy-2,3-dihydro-[1,4]dioxino[2,3-f]quinolin-10-yl)oxy)phenyl)-3-(4-fluorophenyl)-1-methyl-2,4-dioxo-1,2,3,4-tetrahydropyrimidine-5-carboxamide], for which the IC50 (in assay [1]; with EBC1 cells) was ≤ 50 nM each time.
In the case of `COCCOc1cc2nccc(Oc3ccc(NC(=O)c4cn(C)c(=O)n(-c5ccc(F)cc5)c4=O)c(F)c3)c2c2c1OCCO2` [Example 155, N-(2-fluoro-4-((5-(2-methoxyethoxy)-2,3-dihydro-[1,4]dioxino[2,3-f]quinolin-10-yl)oxy)phenyl)-3-(4-fluorophenyl)-1-methyl-2,4-dioxo-1,2,3,4-tetrahydropyrimidine-5-carboxamide], the IC50 in assay [1] was ≤ 50 nM.
For `CC(C)n1cc(C(=O)Nc2ccc(Oc3ccnc4cc(OCCCN5CCOCC5)c5c(c34)OCCO5)c(Cl)c2)c(=O)n(-c2ccc(F)cc2)c1=O` [Example 97, N-(3-chloro-4-((5-(3-morpholinopropoxy)-2,3-dihydro-[1,4]dioxino[2,3-f]quinolin-10-yl)oxy)phenyl)-3-(4-fluorophenyl)-1-isopropyl-2,4-dioxo-1,2,3,4-tetrahydropyrimidine-5-carboxamide], the IC50 in assay [1] was 50 to 200 nM.
Take `COCCOc1cc2nccc(Oc3cc(C)c(NC(=O)c4cn(C)c(=O)n(-c5ccc(F)cc5)c4=O)cc3F)c2c2c1OCCO2` [Example 179, N-(5-fluoro-4-((5-(2-methoxyethoxy)-2,3-dihydro-[1,4]dioxino[2,3-f]quinolin-10-yl)oxy)-2-methylphenyl)-3-(4-fluorophenyl)-1-methyl-2,4-dioxo-1,2,3,4-tetrahydropyrimidine-5-carboxamide]: the half-maximal inhibitory concentration (IC50) in assay [1] was ≤ 50 nM.
Same read-out and setting: in the case of `COc1cc2nccc(Oc3cc(C)c(NC(=O)c4cn(C)c(=O)n(-c5ccc(F)cc5)c4=O)cc3F)c2c2c1OCCO2` [Example 177, N-(5-fluoro-4-((5-methoxy-2,3-dihydro-[1,4]dioxino[2,3-f]quinolin-10-yl)oxy)-2-methylphenyl)-3-(4-fluorophenyl)-1-methyl-2,4-dioxo-1,2,3,4-tetrahydropyrimidine-5-carboxamide] it was ≤ 50 nM.
The same measure, in the same setting: in the case of `CCn1cc(C(=O)Nc2cc(F)c(Oc3ccnc4cc(OCCOC)c5c(c34)OCCO5)cc2C)c(=O)n(-c2ccc(F)cc2)c1=O` [Example 180, N-(5-fluoro-4-((5-(2-methoxyethoxy)-2,3-dihydro-[1,4]dioxino[2,3-f]quinolin-10-yl)oxy)-2-methylphenyl)-3-(4-fluorophenyl)-1-ethyl-2,4-dioxo-1,2,3,4-tetrahydropyrimidine-5-carboxamide] it was ≤ 50 nM.

For the origin of these results see patent US12202835B2, “Substituted aromatic ring-linked dioxinoquinazolines and dioxinoquinolines as kinase inhibitors” (BEIJING SCITECH-MQ PHARMACEUTICALS LIMITED, priority 2018, dated 2025).
